This note sets out measurements from patent publication EP2975030B1, “DIHYDROPYRIDAZINE-3,5-DIONE DERIVATIVE” (Chugai Seiyaku Kabushiki Kaisha, priority 2013, dated 2014).

Test [1] concerns rat small-intestinal brush border membrane vesicles. Nature of the test: Inhibitory effect on 33PO4 uptake into rat small-intestinal brush border membrane vesicles (rapid filtration method). As to conditions: 1 µM test compound; 33PO4 uptake into rat small-intestinal BBMVs, 60 seconds. In kind it is biochemical, Wistar female rat. Summed up:
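33PO4 uptake into rat small-intestinal brush border membrane vesicles measured by rapid filtration. Reactions were stopped with ice-cold buffer (110 mM NaCl, 1 mM KH2PO4, 10 mM HEPES pH 7.5), filtered and washed. Vesicle-associated radioactivity was counted by liquid scintillation.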

Test [2] has as its system adenine-induced renal failure rat. Nature of the test: Suppressive effect on rise in serum phosphorus concentration of adenine-induced renal failure rat (0.1% in feed, 3 days). In kind it is in vivo, Wistar male rat. As to conditions: feed or water, 72 h, rate of suppression of a rise in serum phosphorus concentration, 0.1% of mass concentration in feed. An excerpt:
Test Example 5: Suppressive effect on rise in serum phosphorus concentration of adenine-induced renal failure rat Adenine was forcedly administered orally to each Wistar male rat (7-8 weeks old) to impair renal functions and thereby prepare a hyperphosphatemia model ([…], Nagano N, Burke SK, Fukushima N. Sevelamer hydrochloride prevents ectopic calcification and renal osteodystrophy in chronic renal failure rats. Kidney Int. 2003 Aug; 64 (2): 441-50). Each test compound was mixed at a ratio of 0.1% of mass concentration with feed. The animal was fed with a given amount of the feed for 3 days. A group given feed non-supplemented with a test compound was used as a reference pathological group, and an adenine-unadministered group given feed non-supplemented with a test compound was used as a normal group. 3 days after the start of administration of the test compound, blood was collected from the jugular vein, and serum was collected. Serum phosphorus concentrations were measured by the Fiske-Subbarow method. The rate of suppression of a rise in serum phosphorus concentration was determined according to the following expression: Rate (%) of suppression of a rise in serum phosphorus concentration = (1-[([…]-treatedpathologicalgroup); -(Serumphosphorusconcentrationofthenormalgroup)]/; [(Serumphosphorusconcentrationofthereferencepathologicalgroup)-(Serumphosphorusconcentrationofthenormalgroup)]) × 100 [formula] As a result, each test compound was confirmed to have a suppressive effect on a rise in serum phosphorus concentration. […]

For `C[C@]12CCCN1N(Cc1ccc(C#CCN3CCOCC3)c(F)c1F)C(=O)C(C(=O)Nc1ccc(C(F)(F)F)cc1-c1ccc(C(F)(F)F)nc1)=C2O` [Example 140, (4aR)-1-[[2,3-Difluoro-4-(3-morpholin-4-ylprop-1-ynyl)phenyl]methyl]-4-hydroxy-4a-methyl-2-oxo-N-[4-(trifluoromethyl)-2-[6-(trifluoromethyl)pyridin-3-yl]phenyl]-6,7-dihydro-5H-pyrrolo[1,2-b]pyridazine-3-carboxamide], the “Rate of uptake inhibition (%) (1 µM)” value in test [1] amounted to 77%. The inhibition in vivo – broadly, the share of the control response that was lost under treatment – at 0.1 %, 0.1 % in feed in test [2] was 39%.
In the case of `COCCN(C)CCOc1ccc(CN2C(=O)C(C(=O)Nc3ccc(C(F)(F)F)cc3-c3cc(C(F)(F)F)ncn3)=C(O)C3(CCC3)N2C)c(F)c1F` [Example 13, 6-[[2,3-Difluoro-4-[2-[2-methoxyethyl(methyl)amino]ethoxy]phenyl]methyl]-9-hydroxy-5-methyl-7-oxo-N-[4-(trifluoromethyl)-2-[6-(trifluoromethyl)pyrimidin-4-yl]phenyl]-5,6-diazaspiro[3.5]non-8-ene-8-carboxamide], the “Rate of uptake inhibition (%) (1 µM)” value in test [1] amounted to 58%. Besides, the inhibition in vivo at 0.1 %, 0.1 % in feed in test [2] was 25%.
`COCCN(C)CCOc1ccc(CN2C(=O)C(C(=O)Nc3ccc(C(F)(F)F)cc3-c3cc(C(F)(F)F)ncn3)=C(O)C3(CCCC3)N2C)c(F)c1F` [Example 14, 7-[[2,3-Difluoro-4-[2-[2-methoxyethyl(methyl)amino]ethoxy]phenyl]methyl]-10-hydroxy-6-methyl-8-oxo-N-[4-(trifluoromethyl)-2-[6-(trifluoromethyl)pyrimidin-4-yl]phenyl]-6,7-diazaspiro[4.5]dec-9-ene-9-carboxamide]: the “Rate of uptake inhibition (%) (1 µM)” value in test [1] amounted to 29%. Also, the inhibition in vivo at 0.1 %, 0.1 % in feed in test [2] was found to be 39%.
Consider `CN1[C@@H](C(C)(C)C)C(O)=C(C(=O)Nc2ccc(Cl)cc2-c2ccc(C(F)(F)F)nc2)C(=O)N1Cc1ccc(OCCN2CCOCC2)c(F)c1F` [Example 267, (3S)-3-tert-Butyl-N-[4-chloro-2-[6-(trifluoromethyl)pyridin-3-yl]phenyl]-1-[[2,3-difluoro-4-(2-morpholin-4-ylethoxy)phenyl]methyl]-4-hydroxy-2-methyl-6-oxo-3H-pyridazine-5-carboxamide], for which the “Rate of uptake inhibition (%) (1 µM)” value in test [1] turned out to be 71%. In test [2], this compound had an inhibition in vivo at 0.1 %, 0.1 % in feed of 18%.
As for `C[C@]12CCCN1N(Cc1ccc(OCCCCOC[C@H](O)CO)c(F)c1F)C(=O)C(C(=O)Nc1ccc(C(F)(F)F)cc1-c1cc(C(F)(F)F)ncn1)=C2O` [Example 152, (4aR)-1-[[4-[4-[(2R)-2,3-Dihydroxypropoxy]butoxy]-2,3-difluorophenyl]methyl]-4-hydroxy-4a-methyl-2-oxo-N-[4-(trifluoromethyl)-2-[6-(trifluoromethyl)pyrimidin-4-yl]phenyl]-6,7-dihydro-5H-pyrrolo[1,2-b]pyridazine-3-carboxamide], the “Rate of uptake inhibition (%) (1 µM)” value in test [1] is given as 54%. Besides, in test [2], the inhibition in vivo at 0.1 %, 0.1 % in feed is 26%.
Turning to `C[C@]12CCCN1N(Cc1ccc(C#CCCCC(=O)O)c(F)c1F)C(=O)C(C(=O)Nc1ccc(C(F)(F)F)cc1-c1cc(C(F)(F)F)ncn1)=C2O` [Example 129, 6-[4-[[(4aR)-4-Hydroxy-4a-methyl-2-oxo-3-[[4-(trifluoromethyl)-2-[6-(trifluoromethyl)pyrimidin-4-yl]phenyl]carbamoyl]-6,7-dihydro-5H-pyrrolo[1,2-b]pyridazin-1-yl]methyl]-2,3-difluorophenyl]hex-5-ynoic acid], in test [1], the “Rate of uptake inhibition (%) (1 µM)” value came out at 63%. Moreover, the inhibition in vivo at 0.1 %, 0.1 % in feed in test [2] came to 17%.
Taken in the same sequence, the figures for `C[C@]12CCCN1N(Cc1ccc(CN3CCOCC3)c(F)c1F)C(=O)C(C(=O)Nc1ccc(C(F)(F)F)cc1-c1ccc(C(F)(F)F)nc1)=C2O.Cl` [Example 164, (4aR)-1-[[2,3-Difluoro-4-(morpholin-4-ylmethyl)phenyl]methyl]-4-hydroxy-4a-methyl-2-oxo-N-[4-(trifluoromethyl)-2-[6-(trifluoromethyl)pyridin-3-yl]phenyl]-6,7-dihydro-5H-pyrrolo[1,2-b]pyridazine-3-carboxamide; hydrochloride] were 64% and 14%.
In the case of `CSc1ccc(-c2cc(Cl)ccc2NC(=O)C2=C(O)[C@H](C(C)(C)C)N(C)N(Cc3ccc(OCCN4CCOCC4)c(F)c3F)C2=O)cn1` [Example 269, (3S)-3-tert-Butyl-N-[4-chloro-2-(6-methylsulfanylpyridin-3-yl)phenyl]-1-[[2,3-difluoro-4-(2-morpholin-4-ylethoxy)phenyl]methyl]-4-hydroxy-2-methyl-6-oxo-3H-pyridazine-5-carboxamide], the “Rate of uptake inhibition (%) (1 µM)” value in test [1] stood at 80%. The compound further had an inhibition in vivo at 0.1 %, 0.1 % in feed in test [2] of 15%.
Take `C[C@]12CCCN1N(Cc1ccc(OCCCOC[C@H](O)CO)c(F)c1F)C(=O)C(C(=O)Nc1ccc(C(F)(F)F)cc1-c1ccc(C(F)(F)F)nc1)=C2O` [Example 147, (4aR)-1-[[4-[3-[(2R)-2,3-Dihydroxypropoxy]propoxy]-2,3-difluorophenyl]methyl]-4-hydroxy-4a-methyl-2-oxo-N-[4-(trifluoromethyl)-2-[6-(trifluoromethyl)pyridin-3-yl]phenyl]-6,7-dihydro-5H-pyrrolo[1,2-b]pyridazine-3-carboxamide]: in test [1], the “Rate of uptake inhibition (%) (1 µM)” value came to 57%. The inhibition in vivo at 0.1 %, 0.1 % in feed in test [2] came out at 35%.
In the case of `CN1[C@@H](C(C)(C)C)C(O)=C(C(=O)Nc2ccc(Cl)cc2-c2cc(C(F)(F)F)ncn2)C(=O)N1Cc1ccc(OCCN2CCOCC2)c(F)c1F` [Example 265, (3S)-3-tert-Butyl-N-[4-chloro-2-[6-(trifluoromethyl)pyrimidin-4-yl]phenyl]-1-[[2,3-difluoro-4-(2-morpholin-4-ylethoxy)phenyl]methyl]-4-hydroxy-2-methyl-6-oxo-3H-pyridazine-5-carboxamide], the “Rate of uptake inhibition (%) (1 µM)” value in test [1] was 52%. For the same compound, the inhibition in vivo at 0.1 %, 0.1 % in feed in test [2] was determined as 11%.
For `C[C@]12CCCN1N(Cc1cccc(Cl)c1F)C(=O)C(C(=O)Nc1cc(F)c(Br)c(F)c1)=C2O` [Example 196, (4aR)-N-(4-Bromo-3,5-difluorophenyl)-1-[(3-chloro-2-fluorophenyl)methyl]-4-hydroxy-4a-methyl-2-oxo-6,7-dihydro-5H-pyrrolo[1,2-b]pyridazine-3-carboxamide], in test [1], the “Rate of uptake inhibition (%) (1 µM)” value is on record as 90%. The compound further returned an inhibition in vivo at 0.1 %, 0.1 % in feed in test [2] of 35%.
Taken in the same sequence, the figures for `C[C@]12CCCN1N(Cc1ccc(OCCCCCCOC[C@H](O)CO)c(F)c1F)C(=O)C(C(=O)Nc1cnc(C(F)(F)F)nc1-c1ccc(C(F)(F)F)nc1)=C2O` [Example 156, (4aR)-1-[[4-[6-[(2R)-2,3-Dihydroxypropoxy]hexoxy]-2,3-difluorophenyl]methyl]-4-hydroxy-4a-methyl-2-oxo-N-[2-(trifluoromethyl)-4-[6-(trifluoromethyl)pyridin-3-yl]pyrimidin-5-yl]-6,7-dihydro-5H-pyrrolo[1,2-b]pyridazine-3-carboxamide] were 59% and 21%.
Take `CN1N(Cc2ccc(OCCCCC(=O)O)c(F)c2F)C(=O)C(C(=O)Nc2ccc(C(F)(F)F)cc2-c2cc(C(F)(F)F)ncn2)=C(O)C12CCCC2` [Example 333, 5-[2,3-Difluoro-4-[[10-hydroxy-6-methyl-8-oxo-9-[[4-(trifluoromethyl)-2-[6-(trifluoromethyl)pyrimidin-4-yl]phenyl]carbamoyl]-6,7-diazaspiro[4.5]dec-9-en-7-yl]methyl]phenoxy]pentanoic acid]: the “Rate of uptake inhibition (%) (1 µM)” value in test [1] is on record as 29%. This compound also gave an inhibition in vivo at 0.1 %, 0.1 % in feed in test [2] of 8%.
`CN1N(Cc2ccc(OCCN3CCOCC3)c(F)c2F)C(=O)C(C(=O)Nc2ccc(C(F)(F)F)cc2-c2cc(C(F)(F)F)ncn2)=C(O)C12CCCC2` [Example 318, 7-[[2,3-Difluoro-4-(2-morpholin-4-ylethoxy)phenyl]methyl]-10-hydroxy-6-methyl-8-oxo-N-[4-(trifluoromethyl)-2-[6-(trifluoromethyl)pyrimidin-4-yl]phenyl]-6,7-diazaspiro[4.5]dec-9-ene-9-carboxamide]: the “Rate of uptake inhibition (%) (1 µM)” value in test [1] came to 43%. For the same compound, the inhibition in vivo at 0.1 %, 0.1 % in feed in test [2] was determined as 32%.
As for `Cc1c(C#N)ncnc1-c1cc(C(F)(F)F)ccc1NC(=O)C1=C(O)[C@@]2(C)CCCN2N(Cc2ccc(OCCN3CCOCC3)c(F)c2F)C1=O` [Example 22, (4aR)-N-[2-(6-Cyano-5-methylpyrimidin-4-yl)-4-(trifluoromethyl)phenyl]-1-[[2,3-difluoro-4-(2-morpholin-4-ylethoxy)phenyl]methyl]-4-hydroxy-4a-methyl-2-oxo-6,7-dihydro-5H-pyrrolo[1,2-b]pyridazine-3-carboxamide], the “Rate of uptake inhibition (%) (1 µM)” value in test [1] worked out at 50%. Also, in test [2], the inhibition in vivo at 0.1 %, 0.1 % in feed was found to be 26%.
